Laboratory results taken from patent publication US12471596B2 (priority 2019, dated 2025).

What was measured:
[1] = system: Plasmopara viticola; assay: Example B: Plasmopara viticola test in grape (greenhouse, preventive); format: in vivo; settings: 24 h, grape seedlings sprayed one day before inoculation, disease severity rating, read-out: control compared to the untreated check
Protocol: Example B: Plasmopara viticola Test in Grape
The compound were dissolved in 2% DMSO/Acetone & then mixed with water containing emulsifier to a calibrated spray volume of 50 mL. The spray solutions were poured into spray bottles for further applications.
To test the preventive activity of compounds, 5 week old healthy grape seedlings, cv. Thompson seedless, raised in the greenhouse, were sprayed with the active compound preparation at the stated application rates inside spray cabinets using hallow cone nozzles. One day after treatment, the plants were inoculated with an inoculum suspension (sterile water) containing 6×10^4 Plasmopara viticola inoculum. The inoculated plants were then kept in a greenhouse chamber at 18-21° C. temperature and 95-100% relative humidity for disease expression.
A visual assessment of the performance of the compound was carried out by rating the disease severity (0-100% scale) on treated plants 3, 7 and 10 days after application. Efficacy (% control) of the compound was calculated by comparing the disease rating in the treatment with the one of the untreated control. The compounds were also assessed for their plant compatibility by recording symptoms like necrosis, chlorosis & stunting

[2] = system: Phytophthora infestans; assay: microbe, parasite or virus in culture; format: cell-based; settings: in Secale cereale, 168 h, read-out: control compared to the untreated check
[3] = system: Phytophthora infestans; assay: whole plant or invertebrate; format: in vivo, Phytophthora infestans on tomato plants; settings: in Solanum lycopersicum, 24 h, read-out: control compared to the untreated check

SMILES	pest or weed control at 50 ppm [1]	inhibition of growth at 30 ppm [2]	pest or weed control at 50 ppm [3]
O=C(COc1nccnc1Cl)N1CCC(c2nc(C3=NOC(c4c(Cl)cccc4Cl)C3)cs2)CC1 (stereo not shown) [Compound 124, 2-((3-chloropyrazin-2-yl)oxy)-1-(4-(4-(5-(2,6-dichlorophenyl)-4,5-dihydroisoxazol-3-yl)thiazol-2-yl)piperidin-1-yl)ethan-1-one]	≥ 70%	≥ 70%	≥ 70%
O=C(COc1nccnc1Cl)N1CCC(c2nc(C3=NOC(c4c(F)cccc4F)C3)cs2)CC1 (stereo not shown) [Compound 122, 2-((3-chloropyrazin-2-yl)oxy)-1-(4-(4-(5-(2,6-difluorophenyl)-4,5-dihydroisoxazol-3-yl)thiazol-2-yl)piperidin-1-yl)ethan-1-one]	≥ 70%	≥ 70%	≥ 70%
CS(=O)(=O)Oc1cccc(Cl)c1C1CC(c2csc(C3CCN(C(=O)COc4nccc(C#N)n4)CC3)n2)=NO1 (stereo not shown) [Compound 113, 3-chloro-2-(3-(2-(1-(2-((4-cyanopyrimidin-2-yl)oxy)acetyl)piperidin-4-yl)thiazol-4-yl)-4,5-dihydroisoxazol-5-yl)phenyl methanesulfonate]	≥ 70%	≥ 70%	≥ 70%
O=C(COc1nccnc1C(F)(F)F)N1CCC(c2nc(C3=NOC(c4c(Cl)cccc4Cl)C3)cs2)CC1 (stereo not shown) [Compound 3, 1-(4-(4-(5-(2,6-dichlorophenyl)-4,5-dihydroisoxazol-3-yl)thiazol-2-yl)piperidin-1-yl)-2-((3-(trifluoromethyl)pyrazin-2-yl)oxy)ethan-1-one]	≥ 70%	≥ 70%	≥ 70%
COc1nc(OC)nc(OCC(=O)N2CCC(c3nc(C4=NOC(c5c(F)cccc5Br)C4)cs3)CC2)n1 (stereo not shown) [Compound 110, 1-(4-(4-(5-(2-bromo-6-fluorophenyl)-4,5-dihydroisoxazol-3-yl)thiazol-2-yl)piperidin-1-yl)-2-((4,6-dimethoxy-1,3,5-triazin-2-yl)oxy)ethan-1-one]	≥ 70%	≥ 70%	≥ 70%
N#Cc1ccnc(OCC(=O)N2CCC(c3nc(C4=NOC(c5c(F)cccc5Cl)C4)cs3)CC2)n1 (stereo not shown) [Compound 118, 2-(2-(4-(4-(5-(2-chloro-6-fluorophenyl)-4,5-dihydroisoxazol-3-yl)thiazol-2-yl)piperidin-1-yl)-2-oxoethoxy)pyrimidine-4-carbonitrile]	≥ 70%	≥ 70%	≥ 70%
O=C(COc1nccnc1Cl)N1CCC(c2nc(C3=NOC(c4c(Cl)cc(Cl)cc4Cl)C3)cs2)CC1 (stereo not shown) [Compound 123, 2-((3-chloropyrazin-2-yl)oxy)-1-(4-(4-(5-(2,4,6-trichlorophenyl)-4,5-dihydroisoxazol-3-yl)thiazol-2-yl)piperidin-1-yl)ethan-1-one]	≥ 70%	–	≥ 70%
O=C(COc1nccnc1C(F)(F)F)N1CCC(c2csc(C3=NOC(c4c(F)cccc4F)C3)n2)CC1 (stereo not shown) [Compound 23, 1-(4-(2-(5-(2,6-difluorophenyl)-4,5-dihydroisoxazol-3-yl)thiazol-4-yl)piperidin-1-yl)-2-((3-(trifluoromethyl)pyrazin-2-yl)oxy)ethan-1-one]	≥ 70%	≥ 70%	–
O=C(COc1ccnc(C(F)(F)F)n1)N1CCC(c2nc(C3=NOC(c4c(Cl)cccc4Cl)C3)cs2)CC1 (stereo not shown) [Compound 16, 1-(4-(4-(5-(2,6-dichlorophenyl)-4,5-dihydroisoxazol-3-yl)thiazol-2-yl)piperidin-1-yl)-2-((2-(trifluoromethyl)pyrimidin-4-yl)oxy)ethan-1-one]	–	≥ 70%	≥ 70%
COc1ccnc(OCC(=O)N2CCC(c3nc(C4=NOC(c5c(Cl)cccc5C#N)C4)cs3)CC2)n1 (stereo not shown) [Compound 31, 3-chloro-2-(3-(2-(1-(2-((4-methoxypyrimidin-2-yl)oxy)acetyl)piperidin-4-yl)thiazol-4-yl)-4,5-dihydroisoxazol-5-yl)benzonitrile]	–	≥ 70%	≥ 70%
COc1nccnc1OCC(=O)N1CCC(c2nc(C3=NOC(c4c(F)cccc4Br)C3)cs2)CC1 (stereo not shown) [Compound 28, 1-(4-(4-(5-(2-bromo-6-fluorophenyl)-4,5-dihydroisoxazol-3-yl)thiazol-2-yl)piperidin-1-yl)-2-((3-methoxypyrazin-2-yl)oxy)ethan-1-one]	–	≥ 70%	≥ 70%
O=C(COc1ccnc(C(F)(F)F)n1)N1CCC(c2nc(C3=NOC(c4c(Cl)cccc4C(F)(F)F)C3)cs2)CC1 (stereo not shown) [Compound 18, 1-(4-(4-(5-(2-chloro-6-(trifluoromethyl)phenyl)-4,5-dihydroisoxazol-3-yl)thiazol-2-yl)piperidin-1-yl)-2-((2-(trifluoromethyl)pyrimidin-4-yl)oxy)ethan-1-one]	–	≥ 70%	≥ 70%
O=C(COc1nccnc1C(F)(F)F)N1CCC(c2csc(C3=NOC(c4c(Cl)cccc4Cl)C3)n2)CC1 (stereo not shown) [Compound 13, 1-(4-(2-(5-(2,6-dichlorophenyl)-4,5-dihydroisoxazol-3-yl)thiazol-4-yl)piperidin-1-yl)-2-((3-(trifluoromethyl)pyrazin-2-yl)oxy)ethan-1-one]	–	≥ 70%	≥ 70%
O=C(COc1nccnc1C(F)(F)F)N1CCC(c2csc(C3=NOC(c4c(Cl)cc(Cl)cc4Cl)C3)n2)CC1 (stereo not shown) [Compound 8, 1-(4-(2-(5-(2,4,6-trichlorophenyl)-4,5-dihydroisoxazol-3-yl)thiazol-4-yl)piperidin-1-yl)-2-((3-(trifluoromethyl)pyrazin-2-yl)oxy)ethan-1-one]	–	≥ 70%	≥ 70%
CS(=O)(=O)Oc1cccc(Cl)c1C1CC(c2csc(C3CCN(C(=O)COc4nccnc4Cl)CC3)n2)=NO1 (stereo not shown) [Compound 127, 3-chloro-2-(3-(2-(1-(2-((3-chloropyrazin-2-yl)oxy)acetyl)piperidin-4-yl)thiazol-4-yl)-4,5-dihydroisoxazol-5-yl)phenyl methanesulfonate]	≥ 70%	–	≥ 70%
O=C(COc1nccnc1C(F)(F)F)N1CCC(c2nc(C3OCc4c(F)ccc(F)c4CO3)cs2)CC1 [Compound 64, 1-(4-(4-(6,9-difluoro-1,5-dihydrobenzo[e][1,3]dioxepin-3-yl)thiazol-2-yl)piperidin-1-yl)-2-((3-(trifluoromethyl)pyrazin-2-yl)oxy)ethan-1-one]	–	≥ 70%	≥ 70%
O=C(COc1nccnc1Cl)N1CCC(c2nc(C3=NOC(c4c(F)cccc4Cl)C3)cs2)CC1 (stereo not shown) [Compound 125, 1-(4-(4-(5-(2-chloro-6-fluorophenyl)-4,5-dihydroisoxazol-3-yl)thiazol-2-yl)piperidin-1-yl)-2-((3-chloropyrazin-2-yl)oxy)ethan-1-one]	≥ 70%	–	≥ 70%
O=C(COc1cc(C(F)(F)F)ncn1)N1CCC(c2nc(C3=NOC(c4c(F)cccc4Cl)C3)cs2)CC1 (stereo not shown) [Compound 9, 1-(4-(4-(5-(2-chloro-6-fluorophenyl)-4,5-dihydroisoxazol-3-yl)thiazol-2-yl)piperidin-1-yl)-2-((6-(trifluoromethyl)pyrimidin-4-yl)oxy)ethan-1-one]	–	≥ 70%	≥ 70%
CS(=O)(=O)Oc1cccc(Cl)c1C1CC(c2csc(C3CCN(C(=O)COc4ccc(C(F)(F)F)nn4)CC3)n2)=NO1 (stereo not shown) [Compound 41, 3-chloro-2-(3-(2-(1-(2-((6-(trifluoromethyl)pyridazin-3-yl)oxy)acetyl)piperidin-4-yl)thiazol-4-yl)-4,5-dihydroisoxazol-5-yl)phenyl methanesulfonate]	–	≥ 70%	≥ 70%
O=C(COc1ccc(C(F)(F)F)nn1)N1CCC(c2nc(C3=NOC(c4c(F)cccc4Cl)C3)cs2)CC1 (stereo not shown) [Compound 39, 1-(4-(4-(5-(2-chloro-6-fluorophenyl)-4,5-dihydroisoxazol-3-yl)thiazol-2-yl)piperidin-1-yl)-2-((6-(trifluoromethyl)pyridazin-3-yl)oxy)ethan-1-one]	–	≥ 70%	≥ 70%
O=C(COc1nccnc1C(F)(F)F)N1CCC(c2nc(C3=NOC(c4c(F)cccc4F)C3)sc2Cl)CC1 (stereo not shown) [Compound 22, 1-(4-(5-chloro-2-(5-(2,6-difluorophenyl)-4,5-dihydroisoxazol-3-yl)thiazol-4-yl)piperidin-1-yl)-2-((3-(trifluoromethyl)pyrazin-2-yl)oxy)ethan-1-one]	≥ 70%	–	–
O=C(COc1ccnc(C(F)(F)F)n1)N1CCC(c2nc(C3=NOC(c4c(F)cccc4F)C3)cs2)CC1 (stereo not shown) [Compound 17, 1-(4-(4-(5-(2,6-difluorophenyl)-4,5-dihydroisoxazol-3-yl)thiazol-2-yl)piperidin-1-yl)-2-((2-(trifluoromethyl)pyrimidin-4-yl)oxy)ethan-1-one]	–	≥ 70%	≥ 70%
